Here are results for eight molecules from article PMC6292506 (Nature structural & molecular biology, 2018).

Where a SMILES comes first, the peptide text is derived from it.

In one experiment the target is Cdc14 (Saccharomyces cerevisiae, UniProt Q00684). In kind it is biochemical. As to conditions: for Dephosphorylation of pTP phosphopeptide by Cdc14: 1 µM Cdc14 (Supplementary Fig. 9d).
The subject of another experiment is Cdc14 with Net1^1-600. In kind it is biochemical, Saccharomyces cerevisiae. Particulars: 200 nM Net1^1-600; two independent experiments (Fig. 4c).
Experiment [1] concerns the target GFP-Cdc14 (Saccharomyces cerevisiae, UniProt Q00684). Put plainly: biochemical. Type of experiment: binding.
In experiment [2] the target is T1, GFP-Cdc14 (S. cerevisiae, UniProt Q00684 1-551).
T1 sequence (looked up): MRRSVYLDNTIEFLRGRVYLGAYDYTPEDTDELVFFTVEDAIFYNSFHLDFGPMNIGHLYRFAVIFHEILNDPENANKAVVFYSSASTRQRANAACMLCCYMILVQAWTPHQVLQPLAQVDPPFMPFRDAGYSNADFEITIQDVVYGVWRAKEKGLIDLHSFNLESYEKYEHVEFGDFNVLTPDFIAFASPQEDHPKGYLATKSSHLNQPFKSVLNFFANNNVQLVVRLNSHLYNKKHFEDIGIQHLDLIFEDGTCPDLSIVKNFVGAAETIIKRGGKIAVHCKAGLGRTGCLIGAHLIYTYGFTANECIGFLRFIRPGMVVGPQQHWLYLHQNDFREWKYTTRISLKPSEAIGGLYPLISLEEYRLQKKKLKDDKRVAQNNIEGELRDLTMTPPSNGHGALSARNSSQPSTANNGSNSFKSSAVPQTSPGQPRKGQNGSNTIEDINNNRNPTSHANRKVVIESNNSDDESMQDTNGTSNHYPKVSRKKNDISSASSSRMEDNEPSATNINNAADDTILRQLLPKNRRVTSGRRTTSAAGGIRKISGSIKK
Put plainly: MST.

In another experiment the target is T2, His6-Net1^1-600 (S. cerevisiae, UniProt P47035 1-600).
T2 sequence (looked up): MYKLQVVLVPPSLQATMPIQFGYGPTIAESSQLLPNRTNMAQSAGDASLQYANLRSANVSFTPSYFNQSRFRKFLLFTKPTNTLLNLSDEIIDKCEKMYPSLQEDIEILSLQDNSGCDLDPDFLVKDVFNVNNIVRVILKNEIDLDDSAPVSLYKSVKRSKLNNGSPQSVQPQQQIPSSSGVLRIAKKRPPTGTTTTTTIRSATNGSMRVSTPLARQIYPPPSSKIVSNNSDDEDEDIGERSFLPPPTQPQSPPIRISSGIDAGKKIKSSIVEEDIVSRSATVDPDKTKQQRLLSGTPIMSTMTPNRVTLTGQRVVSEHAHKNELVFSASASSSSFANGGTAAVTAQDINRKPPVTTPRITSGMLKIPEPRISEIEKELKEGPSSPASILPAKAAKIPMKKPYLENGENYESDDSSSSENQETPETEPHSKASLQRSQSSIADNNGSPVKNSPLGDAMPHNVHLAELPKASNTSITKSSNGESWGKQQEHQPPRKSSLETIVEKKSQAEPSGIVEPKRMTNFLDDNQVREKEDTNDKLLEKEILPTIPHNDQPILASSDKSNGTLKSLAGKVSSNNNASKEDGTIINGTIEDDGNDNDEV
Put plainly: pull-down.

With “FTDVPALNYPATPPPHTSPLGpTPLAAFNGLTSPQRSPFP-KSSVK [PxL…pTP peptide]”, the “Dephosphorylation of pTP phosphopeptide by Cdc14” value on Cdc14 is recorded as “substantially enhanced”. With YVPAPAPTTPLNFDHP [scrambled peptide], the “Effect of peptide on inhibition of Cdc14 p-NPP hydrolysis by Net1” value in the experiment with Cdc14 with Net1^1-600 is “observed to a much lesser extent”.

With “FTDVPALNYPATPPPH-TSPLGpSPLAAFNGLTSPQRSPFPKSSVK [PxL…pSPxAA peptide]”, on Cdc14 (pSPxAA phosphopeptide, 100 nM Cdc14, above 50 μM (Fig. 6a)), the “Behaviour at higher substrate concentrations” value was “apparent substrate inhibition”. As to “FTDVAAGNYPATPPPH-TSPLGpTPLAAFNGLTSPQRSPFPKSSVK [AxG…pTP control peptide]”, at Cdc14, the “Dephosphorylation of pTP phosphopeptide by Cdc14” value was “almost undetectable”. For orientation: Kd means a measure of binding affinity in units of concentration. In turn, `CC(C)C[C@H](NC(=O)[C@H](CC(C)C)NC(=O)[C@@H]1CCCN1C(=O)[C@H](C)NC(=O)[C@H](CC(N)=O)NC(=O)[C@H](CCCCN)NC(=O)[C@H](Cc1ccccc1)NC(=O)[C@H](CO)NC(=O)[C@H](CCCCN)NC(=O)[C@@H](NC(=O)[C@@H](NC(=O)[C@H](CO)NC(=O)[C@@H]1CCCN1)[C@@H](C)O)[C@@H](C)O)C(=O)N[C@@H](C)C(=O)N1CCC[C@H]1C(=O)N1CCC[C@H]1C(=O)O` [Sic1 peptide] (H-PSTTKSFKNAPLLAPP-OH) displayed a Kd at GFP-Cdc14 [1] of 32.2 µM. Molecule FTDVPALNYPATPPPH [Cbk1-derived PxL motif peptide (16-mer)] had a Kd with GFP-Cdc14 [2] of 6.1 µM.

B1: GST-Cdc14 (enzyme, S. cerevisiae, UniProt Q00684 1-551, looked up)
chain: T1 sequence (looked up)
In the case of B1, in the experiment with His6-Net1^1-600, the binding result was “binds”. Ac-KGKLILSSVPPLPYDE-NH2 [Kar9-derived PxL motif peptide] returned a Kd with GFP-Cdc14 [2] of 6 µM.
